From patent US20090062120A1, “Agrochemical Composition” (priority 2005, published 2009)

Experiments:
[1] = format: physicochemical; settings: for External appearance of dilution [5% in water] / Crystal formation in dilution [5% in water; 24 hours, 30° C.] / External appearance of dilution [5% in water; 24 hours, 30° C.] / External appearance of formulation [25° C.; on day of preparation] / External appearance of formulation [after 48 hours at 0° C.]: 2,4-D isopropylamine salt 300 g/l; for External appearance of dilution [5% in water] / Crystal formation in dilution [5% in water; 24 hours, 30° C.] / External appearance of dilution [5% in water; 24 hours, 30° C.]: solvent 5% by volume; for External appearance of dilution [5% in water]: 5% (v/v) dilution in water, 500 ppm CaCO3; for Crystal formation in dilution [5% in water; 24 hours, 30° C.] / External appearance of dilution [5% in water; 24 hours, 30° C.]: 5% dilution in water; for External appearance of formulation [25° C.; on day of preparation] / External appearance of formulation [after 48 hours at 0° C.]: solvent addition 5% by volume
Text: In the form of its amine salts, 2,4-dichlorophenoxyacetic acid tends to crystallize out of concentrated solutions. It is state of the art to use an approximately 5% addition of NMP in order to prevent crystallization. In the present example the isopropylamine salt of 2,4-dichlorophenoxyacetic acid was used, 2,4-D IPA for short.
Concentrated aqueous solutions of 2,4-D in isopropylamine salt form (350 g/l) were admixed with quantities of demineralized water and of the corresponding solvent addition such that the concentration of 2,4-D isopropylamine salt was 300 g/l and that of the solvent under test was 5% v/v. Then the external appearance, instantaneously (see column 2 of Table 5) and after storage at 0° C. […] Particular emphasis was placed on any crystal formation.

[2] = cited from earlier work
[3] = Solubilities of active agrochemical substances in acetylcaprolactam
[4] = Dissolution of tebuconazole in standard aromatic solvents alone; format: physicochemical; settings: exclusive use of Solvesso 150 or Solvesso 200, without acetylcaprolactam; 250 g/l
Text: A corresponding formulation using these solvents alone, therefore, cannot be prepared.

| SMILES | External appearance of dilution [5% in water] [1] | Crystal formation in dilution [5% in water; 24 hours, 30° C.] [1] | External appearance of dilution [5% in water; 24 hours, 30° C.] [1] | External appearance of formulation [25° C.; on day of preparation] [1] | External appearance of formulation [after 48 hours at 0° C.] [1] | Toxic effect observed in animal experiments [2] | Behavior compared with NMP [1] | Solubility (% by wt.) at 25° C. [3] | Dissolution at the concentration specified in Example 4 [4] |
| --- | --- | --- | --- | --- | --- | --- | --- | --- | --- |
| COCC(C)OCC(C)OC (stereo not drawn) [Dipropylene glycol dimethyl ether] | clear | <1% | clear solution, | clear solution | clear solution | – | – | – | – |
| CCCCCCCCCC(=O)N(C)C [Genagen 4296, N,N-dimethylcapramide] | turbid | <1% | sample separated, | clear solution | clear solution | – | – | – | – |
| CN1CCCC1=O [N-Methylpyrrolidone, N-Methyl-2-pyrrolidone] | clear | no crystals | clear solution, | clear solution | clear solution | developmentally toxic effect | – | – | – |
| CC(=O)N1CCCCCC1=O [Peractive LAC, acetylcaprolactam] | clear | no crystals | clear solution, | clear solution | clear solution | – | closest to NMP | – | – |
| COCCOCCOCCOCCOC [Tetraethylene glycol dimethyl ether] | clear | <1% | clear solution, | clear solution | clear solution | – | – | – | – |
| COCCOCCOCCOC [Triethylene glycol dimethyl ether] | clear | >1% | clear solution, | clear solution | clear solution | – | – | – | – |
| CCC(CC)Nc1c([N+](=O)[O-])cc(C)c(C)c1[N+](=O)[O-] [pendimethalin, N-(1-ethylpropyl)-3,4-dimethyl-2,6-dinitrophenylamine] | – | – | – | – | – | – | – | 60-65 % by wt. | – |
| COC(=O)Nc1cccc(OC(=O)Nc2cccc(C)c2)c1 [phenmedipham] | – | – | – | – | – | – | – | 15-20 % by wt. | – |
| CC(C)(C)C(O)(CCc1ccc(Cl)cc1)Cn1cncn1 (stereo not drawn) [tebuconazole, R,S-1-p-chlorophenyl-4,4-dimethyl-3-(1H-1,2,4-triazol-1-yl-methyl)pentan-3-ol] | – | – | – | – | – | – | – | – | cannot be dissolved completely |
| O=CNC(N1CCN(C(NC=O)C(Cl)(Cl)Cl)CC1)C(Cl)(Cl)Cl (stereo not drawn) [triforine, N,N′-[1,4-piperazinediylbis(2,2,2-trichloroethylidene)]bis-formamide] | – | – | – | – | – | – | – | 15-20 % by wt. | – |
